Active and inactive are the calls of the source. The calls are words filed in the database; no cut-off is given here.
Assays:
[1] = molecular target: Keap1/Nrf2 (Homo sapiens, UniProt Q14145); test: Inhibition of Keap1-Nrf2 (unknown origin) interaction assessed as compound's equilibrium dissociation constant after 60 mins by fluorescence anisotropy assay; assay type: protein assay
[2] = molecular target: T1, Nuclear factor erythroid 2-related factor 2 (Rattus norvegicus) (UniProt O54968); test: Induction of nuclear translocation of Nrf2 in rat PC12 cells at 4 uM after 4.5 hrs by Western blot analysis; assay type: cell-based; conditions: PC-12
T1 sequence (whole entry): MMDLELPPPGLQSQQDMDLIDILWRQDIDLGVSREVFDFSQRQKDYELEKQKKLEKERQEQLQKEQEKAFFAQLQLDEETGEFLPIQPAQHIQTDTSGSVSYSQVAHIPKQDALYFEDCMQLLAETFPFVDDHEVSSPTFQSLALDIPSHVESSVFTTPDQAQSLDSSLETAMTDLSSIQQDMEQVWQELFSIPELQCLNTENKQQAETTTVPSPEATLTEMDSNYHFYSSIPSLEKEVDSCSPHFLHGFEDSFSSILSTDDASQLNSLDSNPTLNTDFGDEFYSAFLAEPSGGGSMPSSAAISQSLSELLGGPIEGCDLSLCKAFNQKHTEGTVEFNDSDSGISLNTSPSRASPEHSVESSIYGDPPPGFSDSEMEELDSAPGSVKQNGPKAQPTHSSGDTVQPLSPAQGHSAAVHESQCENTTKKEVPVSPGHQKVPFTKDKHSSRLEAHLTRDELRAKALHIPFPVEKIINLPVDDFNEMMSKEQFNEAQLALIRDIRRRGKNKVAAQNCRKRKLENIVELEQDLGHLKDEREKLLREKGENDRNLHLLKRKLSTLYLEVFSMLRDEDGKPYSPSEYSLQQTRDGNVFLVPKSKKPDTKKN

[3] = molecular target: T1, Nuclear factor erythroid 2-related factor 2 (Rattus norvegicus); test: Activation of Nrf2 in rat PC12 cells assessed as increase of HO-1 mRNA level at 1 to 4 uM by qRT-PCR analysis; assay type: cell-based; conditions: PC-12, TDE = time-dependent effect
[4] = molecular target: T1, Nuclear factor erythroid 2-related factor 2 (Rattus norvegicus); test: Activation of Nrf2 in rat PC12 cells assessed as increase of HO-1 mRNA level after 4.5 to 9 hrs by qRT-PCR analysis; assay type: cell-based; conditions: PC-12
[5] = molecular target: T1, Nuclear factor erythroid 2-related factor 2 (Rattus norvegicus); test: Induction of nuclear translocation of Nrf2 in rat PC12 cells at 4 uM after 1.5 hrs by Western blot analysis; assay type: cell-based; conditions: PC-12
[6] = molecular target: Kelch-like ECH-associated protein 1 (Homo sapiens) (UniProt Q14145)
Description: Binding affinity to kelch domain of Keap1 (unknown origin) assessed as change in melting temperature after 15 mins by differential scanning fluorimetry assay

[7] = molecular target: T1, Nuclear factor erythroid 2-related factor 2 (Rattus norvegicus); test: Activation of Nrf2 in rat PC12 cells assessed as increase of HO-1 mRNA level at 1 to 4 uM after 4.5 to 9 hrs by qRT-PCR analysis; assay type: cell-based; conditions: PC-12
[8] = molecular target: T1, Nuclear factor erythroid 2-related factor 2 (Rattus norvegicus); test: Activation of Nrf2 in rat PC12 cells assessed as increase of NQO-1 mRNA level at 1 to 4 uM after 4.5 to 9 hrs by qRT-PCR analysis; assay type: cell-based; conditions: PC-12

Kelch-like ECH-associated protein 1 (Homo sapiens), sequence (Q14145 whole entry): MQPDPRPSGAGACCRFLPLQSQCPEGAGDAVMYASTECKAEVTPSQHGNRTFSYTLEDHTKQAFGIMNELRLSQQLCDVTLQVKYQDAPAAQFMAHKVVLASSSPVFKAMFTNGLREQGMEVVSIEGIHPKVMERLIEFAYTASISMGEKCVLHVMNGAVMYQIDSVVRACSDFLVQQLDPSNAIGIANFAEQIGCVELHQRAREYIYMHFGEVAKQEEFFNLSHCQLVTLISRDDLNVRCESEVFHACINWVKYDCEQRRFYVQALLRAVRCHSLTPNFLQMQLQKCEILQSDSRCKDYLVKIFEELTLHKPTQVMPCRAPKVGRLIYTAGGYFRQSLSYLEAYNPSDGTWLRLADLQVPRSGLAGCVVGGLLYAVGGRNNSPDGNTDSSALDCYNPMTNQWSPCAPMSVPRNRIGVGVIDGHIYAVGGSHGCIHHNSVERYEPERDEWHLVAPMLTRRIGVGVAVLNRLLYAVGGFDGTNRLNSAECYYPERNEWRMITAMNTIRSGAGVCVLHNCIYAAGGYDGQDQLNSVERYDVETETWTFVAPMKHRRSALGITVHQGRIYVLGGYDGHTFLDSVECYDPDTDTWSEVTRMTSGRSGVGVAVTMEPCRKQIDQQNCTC
Keap1/Nrf2, sequence (Q16236 whole entry): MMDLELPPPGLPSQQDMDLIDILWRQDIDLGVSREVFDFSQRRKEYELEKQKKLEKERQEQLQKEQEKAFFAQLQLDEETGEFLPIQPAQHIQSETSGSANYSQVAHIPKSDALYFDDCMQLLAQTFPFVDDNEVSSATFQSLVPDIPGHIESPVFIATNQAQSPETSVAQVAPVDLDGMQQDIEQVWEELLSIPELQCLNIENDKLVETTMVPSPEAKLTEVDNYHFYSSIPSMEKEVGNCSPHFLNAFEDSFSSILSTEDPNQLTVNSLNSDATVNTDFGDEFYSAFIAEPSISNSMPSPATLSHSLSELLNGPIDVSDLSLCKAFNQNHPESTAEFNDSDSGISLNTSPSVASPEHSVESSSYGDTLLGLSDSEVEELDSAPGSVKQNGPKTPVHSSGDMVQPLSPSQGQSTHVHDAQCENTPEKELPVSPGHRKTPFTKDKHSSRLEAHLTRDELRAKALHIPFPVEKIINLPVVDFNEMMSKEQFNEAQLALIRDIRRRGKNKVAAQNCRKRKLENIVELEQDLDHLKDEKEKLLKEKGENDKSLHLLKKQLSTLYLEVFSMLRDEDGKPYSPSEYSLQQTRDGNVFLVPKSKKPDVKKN
Keap1/Nrf2, sequence (Q14145 whole entry): as the sequence (Q14145 whole entry) above

SMILES | Kd [1] [µM] | further results
CC(C)(C)c1ccc(S(=O)(=O)Nc2cc(SCc3ccco3)c(O)c3ccccc23)cc1 | > 100 | –
O=C1NN(c2ccc(Br)cc2)C(=O)/C1=C\c1ccc(-c2ccccc2)o1 | > 100 | –
Cc1ccc(S(=O)(=O)Nc2ccc(O)c(Sc3nc[nH]n3)c2)cc1 | > 100 | –
CC(=O)Oc1c(SCC(=O)O)cc(NS(=O)(=O)c2ccc(F)cc2)c2ccccc12 | > 100 | –
COc1ccc(-n2cccc2/C=C2\SC(=O)N(CC(=O)Nc3ccc(C)cc3)C2=O)cc1 | > 100 | –
CN1C(=O)S/C(=C\c2cccn2-c2cccc(C(=O)O)c2)C1=O | > 100 | –
O=C(CN1C(=O)S/C(=C\c2cccn2-c2ccc(O)cc2)C1=O)Nc1ccccc1F | > 100 | –
CC(C)c1ccc(S(=O)(=O)Nc2cc(Sc3nc[nH]n3)c(O)c3ccccc23)cc1 | – | Activity [2]: inactive; Activity [3]: tde; Activity [4]: Dose-dependent effect; Activity [5]: Active
Cc1cc(C)c(S(=O)(=O)Nc2cc3sc(=O)oc3c3ccccc23)cc1C | > 100 | ΔTm [6]: 1 °C
Cc1cccc(N2NC(=O)/C(=C/c3ccc(-c4ccc(S(N)(=O)=O)cc4)o3)C2=O)c1 | > 100 | –
Cc1ccc(S(=O)(=O)Nc2cc(Sc3nc4ccccc4s3)c(O)c3ccccc23)cc1 | > 100 | ΔTm [6]: 1 °C
Cc1ccc(NC(=O)CN2C(=O)S/C(=C\c3cccn3C)C2=O)c(C)c1 | > 100 | –
Cc1cccc(C)c1NC(=O)CN1C(=O)S/C(=C\c2cccn2-c2cccc(C(=O)O)c2)C1=O | > 100 | –
Cc1ccc(N2NC(=O)/C(=C/c3ccc(-c4ccc(S(=O)(=O)Nc5nccs5)cc4)o3)C2=O)cc1 | > 100 | –
COc1ccc(-n2cccc2/C=C2\SC(=O)N(CC(=O)Nc3cccc(C)c3)C2=O)cc1 | > 100 | –
NC(=O)c1ccc(-c2ccc(/C=C3/C(=O)NN(c4ccc(F)cc4)C3=O)o2)cc1 | > 100 | –
Cc1ccc(S(=O)(=O)Nc2cc(Sc3nc(C)cc(C)n3)c(O)c3ccccc23)cc1 | > 100 | –
O=C(CN1C(=O)S/C(=C\c2cccn2-c2cccc(C(=O)O)c2)C1=O)Nc1ccc(Cl)cc1 | > 100 | –
O=C(CN1C(=O)S/C(=C\c2cccn2-c2cccc(C(=O)O)c2)C1=O)Nc1ccc(F)cc1 | > 100 | –
COc1ccc(S(=O)(=O)Nc2ccc(NS(=O)(=O)c3ccc(OC)cc3)c3ccccc23)cc1 | – | Activity [7]: inactive; Activity [8]: inactive; ΔTm [6]: 1 °C
COC(=O)c1ccc(N2NC(=O)/C(=C/c3ccc(-c4ccc(S(N)(=O)=O)cc4)o3)C2=O)cc1 | > 100 | –
COc1ccc(S(=O)(=O)Nc2cc(Sc3ccccc3)c(O)c3ccccc23)cc1 | > 100 | –
Cc1ccc(S(=O)(=O)Nc2cc(SCc3ccccc3)c(O)c3ccccc23)cc1 | > 100 | –

Second part, led by results:

Kd [1] [µM] | SMILES | further results
> 100 | Cc1ccc(S(=O)(=O)Nc2cc(Sc3cccc4cccnc34)c(O)c3ccccc23)cc1 | –
13.1 | O=S(=O)(Nc1cc(Sc2nc[nH]n2)c(O)c2ccccc12)c1ccc(Br)cc1 | –
15.3 | O=C(O)CSc1cc(NS(=O)(=O)c2ccc(Cl)cc2)c2ccccc2c1O | –
28.9 | Cc1ccc(NC(=O)CN2C(=O)S/C(=C\c3cccn3-c3cccc(C(=O)O)c3)C2=O)cc1C | –
14.7 | O=C(O)CSc1cc(NS(=O)(=O)c2ccc(Br)cc2)c2ccccc2c1O | –
61.2 | O=S(=O)(Nc1cc(Sc2nc[nH]n2)c(O)c2ccccc12)c1ccccc1 | –
42.9 | O=C1NN(c2ccccc2)C(=O)/C1=C\c1ccc(-c2ccc(C(=O)O)c(Cl)c2)o1 | –
39.5 | O=C1NN(c2cccc(Cl)c2)C(=O)/C1=C\c1ccc(-c2ccc(Br)cc2C(=O)O)o1 | –
7.8 | O=C(O)CSc1cc(NS(=O)(=O)c2ccc3ccccc3c2)c2ccccc2c1O | –
6.4 | CC(C)c1ccc(S(=O)(=O)Nc2cc(SCC(=O)O)c(O)c3ccccc23)cc1 | –
12.2 | Cc1cc(F)ccc1S(=O)(=O)Nc1cc(SCC(=O)O)c(O)c2ccccc12 | –
23.8 | COc1ccc(NC(=O)CN2C(=O)S/C(=C\c3cccn3-c3ccc(C(=O)O)cc3)C2=O)cc1 | –
3.1 | CCOc1ccc(S(=O)(=O)Nc2cc(Sc3nc[nH]n3)c(O)c3ccccc23)cc1 | ΔTm [6]: 4 °C
77.8 | O=C1NN(c2cccc(F)c2)C(=O)/C1=C\c1ccc(-c2ccc(C(=O)O)cc2)o1 | –
68.2 | Cc1cccc(NC(=O)CN2C(=O)S/C(=C\c3cccn3-c3cccc(C(=O)O)c3)C2=O)c1 | –
35.4 | Cc1ccc(/N=C2/S/C(=C\c3c(C)n(CC(=O)O)c4ccccc34)C(=O)N2C)cc1 | –

Kd [1] [µM] | SMILES | further results
15.2 | O=C1NN(c2cccc(Cl)c2)C(=O)/C1=C\c1ccc(-c2ccc(C(=O)O)c(Cl)c2)o1 | ΔTm [6]: 2 °C
29.5 | CCOc1cc(/C=C2\N=C(c3ccccc3)OC2=O)cc(Br)c1OCC(=O)O | –
49.2 | O=C1NN(c2cccc(Cl)c2)C(=O)/C1=C\c1ccc(-c2cccc(C(=O)O)c2)o1 | –
18.9 | O=C(O)CSc1cc(NS(=O)(=O)c2cccc3cccnc23)c2ccccc2c1O | –
20.9 | Cc1cc(C)c(S(=O)(=O)Nc2cc(Cl)c(O)c(Sc3nc[nH]n3)c2)cc1C | –
3.6 | O=S(=O)(Nc1cc(Sc2nc[nH]n2)c(O)c2ccccc12)c1ccc2ccccc2c1 | –
4.2 | Cc1cc(C)c(S(=O)(=O)Nc2cc(SCC(=O)O)c(O)c3ccccc23)c(C)c1 | –
36.6 | O=C(O)CSc1cc(NS(=O)(=O)c2cccs2)c2ccccc2c1O | –
10.4 | Cc1ccccc1NC(=O)CN1C(=O)S/C(=C\c2cccn2-c2cccc(C(=O)O)c2)C1=O | ΔTm [6]: 1 °C
47.6 | Cc1ccc(NC(=O)CN2C(=O)S/C(=C\c3cccn3-c3cccc(C(=O)O)c3)C2=O)c(C)c1 | –
30.2 | O=C(O)CSc1cc(NS(=O)(=O)c2ccc(F)cc2)c2ccccc2c1O | –
75.2 | Cc1oc2c(cc(NS(=O)(=O)c3ccc(Cl)cc3)c3ccccc32)c1C(=O)O | –
3.6 | Cc1cc(C)c(S(=O)(=O)Nc2cc(Sc3nc[nH]n3)c(O)c3ccccc23)cc1C | –
55.5 | O=S(=O)(Nc1cc(Sc2nnnn2-c2ccccc2)c(O)c2ccccc12)c1ccccc1 | –
15.4 | Cc1ccc(S(=O)(=O)Nc2cc(SCC(=O)O)c(O)c3ccccc23)cc1 | –
6.8 | COc1ccc(S(=O)(=O)Nc2cc(Sc3nc[nH]n3)c(O)c3ccccc23)cc1 | –

Reference: ChEMBL document CHEMBL3232949, “Rapid identification of Keap1-Nrf2 small-molecule inhibitors through structure-based virtual screening and hit-based substructure search” (J Med Chem, 2014)
